According to paper PMC8869984, “Multifunctional Silver(I) Complexes with Metronidazole Drug Reveal Antimicrobial Properties and Antitumor Activity against Human Hepatoma and Colorectal Adenocarcinoma Cells” (Cancers, 2022):

Columns and labels:
Test in all cases: micro-dilution broth method (MIC, MBC)
[1] = tested on: S. epidermidis ATCC 12228; format: cell-based, Staphylococcus epidermidis
M. luteus ATCC 10240 = format: cell-based, Micrococcus luteus
B. subtilis ATCC 6633 = format: cell-based, Bacillus subtilis
E. faecalis ATCC 29212 = format: cell-based, Enterococcus faecalis
A. israeli ATCC 10049 = format: cell-based, Actinomyces israelii
C. jejunii ATCC 33291 = format: cell-based, Campylobacter jejunii
H. pylori ATCC 43504 = format: cell-based
[2] = tested on: S. typhimurium ATCC 14028; format: cell-based, Salmonella Typhimurium
E. coli ATCC 25922 = format: cell-based, Escherichia coli
K. pneumoniae ATCC 13883 = format: cell-based, Klebsiella pneumoniae
P. aeruginosa ATCC 9027 = format: cell-based, Pseudomonas aeruginosa
B. fragilis ATCC 10240 = format: cell-based, Bacteroides fragilis
P. intermedia ATCC 25611 = format: cell-based
F. nucleatum ATCC 25586 = format: cell-based, Fusobacterium nucleatum
V. parvula ATCC 10790 = format: cell-based, Veillonella parvula
[3] = S. epidermidis ATCC 12228, value in brackets
[4] = M. luteus ATCC 10240, value in brackets
[5] = B. subtilis ATCC 6633, value in brackets
[6] = E. faecalis ATCC 29212, value in brackets
[7] = A. israeli ATCC 10049, value in brackets
[8] = C. jejunii ATCC 33291, value in brackets
[9] = H. pylori ATCC 43504, value in brackets
[10] = S. typhimurium ATCC 14028, value in brackets
[11] = E. coli ATCC 25922, value in brackets
[12] = K. pneumoniae ATCC 13883, value in brackets
[13] = P. aeruginosa ATCC 9027, value in brackets
[14] = B. fragilis ATCC 10240, value in brackets
[15] = P. intermedia ATCC 25611, value in brackets
[16] = F. nucleatum ATCC 25586, value in brackets
[17] = V. parvula ATCC 10790, value in brackets

O=[N+]([O-])[O-].[Ag+] [AgNO3, Silver nitrate]
0.185 µM/mL: MBC (M. luteus ATCC 10240; [4]) | MBC (E. faecalis ATCC 29212; [6])
62.5 mg/L: MIC (C. jejunii ATCC 33291; C. jejunii ATCC 33291) | MBC (B. fragilis ATCC 10240; B. fragilis ATCC 10240)
0.74 µM/mL: MBC (C. jejunii ATCC 33291; [8])
0.006 µM/mL: MBC (F. nucleatum ATCC 25586; [16])
0.049 µM/mL: MIC (E. coli ATCC 25922; [11]) | MBC (K. pneumoniae ATCC 13883; [12]) | MIC (K. pneumoniae ATCC 13883; [12]) | MIC (V. parvula ATCC 10790; [17])
3.9 mg/L: MIC ([1]; S. epidermidis ATCC 12228) | MIC (M. luteus ATCC 10240; M. luteus ATCC 10240) | MBC (P. aeruginosa ATCC 9027; P. aeruginosa ATCC 9027) | MIC (P. aeruginosa ATCC 9027; P. aeruginosa ATCC 9027)
15.6 mg/L: MBC ([1]; S. epidermidis ATCC 12228) | MBC (B. subtilis ATCC 6633; B. subtilis ATCC 6633) | MIC (B. subtilis ATCC 6633; B. subtilis ATCC 6633) | MIC (E. faecalis ATCC 29212; E. faecalis ATCC 29212) | MBC (H. pylori ATCC 43504; H. pylori ATCC 43504) | MIC (H. pylori ATCC 43504; H. pylori ATCC 43504) | MBC ([2]; S. typhimurium ATCC 14028) | MIC ([2]; S. typhimurium ATCC 14028) | MBC (E. coli ATCC 25922; E. coli ATCC 25922) | MIC (B. fragilis ATCC 10240; B. fragilis ATCC 10240) | MBC (V. parvula ATCC 10790; V. parvula ATCC 10790)
0.025 µM/mL: MIC [1, 3] | MIC (M. luteus ATCC 10240; [4]) | MBC (P. aeruginosa ATCC 9027; [13]) | MIC (P. aeruginosa ATCC 9027; [13])
125 mg/L: MBC (C. jejunii ATCC 33291; C. jejunii ATCC 33291)
0.98 mg/L: MBC (F. nucleatum ATCC 25586; F. nucleatum ATCC 25586)
31.3 mg/L: MBC (M. luteus ATCC 10240; M. luteus ATCC 10240) | MBC (E. faecalis ATCC 29212; E. faecalis ATCC 29212)
0.37 µM/mL: MIC (C. jejunii ATCC 33291; [8]) | MBC (B. fragilis ATCC 10240; [14])
0.49 mg/L: MBC (A. israeli ATCC 10049; A. israeli ATCC 10049) | MIC (A. israeli ATCC 10049; A. israeli ATCC 10049) | MBC (P. intermedia ATCC 25611; P. intermedia ATCC 25611) | MIC (P. intermedia ATCC 25611; P. intermedia ATCC 25611) | MIC (F. nucleatum ATCC 25586; F. nucleatum ATCC 25586)
0.003 µM/mL: MBC (A. israeli ATCC 10049; [7]) | MIC (A. israeli ATCC 10049; [7]) | MBC (P. intermedia ATCC 25611; [15]) | MIC (P. intermedia ATCC 25611; [15]) | MIC (F. nucleatum ATCC 25586; [16])
7.8 mg/L: MIC (E. coli ATCC 25922; E. coli ATCC 25922) | MBC (K. pneumoniae ATCC 13883; K. pneumoniae ATCC 13883) | MIC (K. pneumoniae ATCC 13883; K. pneumoniae ATCC 13883) | MIC (V. parvula ATCC 10790; V. parvula ATCC 10790)
0.09 µM/mL: MBC [1, 3] | MBC (B. subtilis ATCC 6633; [5]) | MIC (B. subtilis ATCC 6633; [5]) | MIC (E. faecalis ATCC 29212; [6]) | MBC (H. pylori ATCC 43504; [9]) | MIC (H. pylori ATCC 43504; [9]) | MBC [2, 10] | MIC [2, 10] | MBC (E. coli ATCC 25922; [11]) | MIC (B. fragilis ATCC 10240; [14]) | MBC (V. parvula ATCC 10790; [17])
